Experimental data published in patent US12458809B2, “Method and system of using plasma discharge tube for sensitization of cancer cells” (The George Washington University, priority 2019, dated 2025).

Tests used:
U87 glioblastoma cells = test: MTT cell viability assay, U87 glioblastoma cells, TMZ with or without plasma discharge tube electro-magnetic field; assay type: cell-based, human; details: for inhibition of the growth of U87 cells: then 180 μM TMZ
Method: (§1) In one experiment conducted using the test system 10 in FIGS. 1A-1B, human glioblastoma cancer cell lines U87 and A172 as well as […] E6/E7 were provided from the ATCC (City of Manassas, VA), and were grown in Dulbecco's Modified Eagle Medium (Gibco) supplemented with 10% fetal bovine serum (Atlanta Biologicals) and 1% penicillin-streptomycin solution (Invitrogen) under standard cell culture conditions (humidified atmosphere with 5% CO2 at 37° C.). After one passage, 10,000 cells in 100 μL medium were seeded into 96-well plates such as the plate 134 in FIG. 1A. The cells were cultured for 24 hours before the experiment was performed to ensure proper cell attachment and stability.
(§2) Cell viability was analyzed by using an MTT assay available from Sigma-Aldrich, which is a colorimetric assay for analyzing the cell metabolic activity. The MTT protocol is based on NAD(P)H-dependent cellular oxidoreductases, which reduces the water-soluble MTT ((3-(4,5-dimethylthiazol-2-yl)-2,5-diphenyltetrazolium bromide) to an insoluble formazan product. Cells with active metabolism can transform MTT into formazan; however, dead cells cannot transform MTT into formazan and will not show detectable signal. The measured absorbance at OD 590 nm is proportional to the number of viable cells.
(§3) Following treatment with an electro-magnetic field generated from the example plasma tube, the cells were cultured for 72 hours. A total of 100 μL MTT solution (7 mg Thiazolyl Blue Tetrazolium Blue in 10 ml DMEM) was added to each well. Cells were cultured for an additional 3 hours at 37° C., and then the MTT solution was aspirated and a 100 μL solvent was added to dissolve the formazan crystals. The result was recorded with a Synergy H1 Hybrid Multi-Mode Microplate Reader at 570 nm. For each condition (treatment time, voltage, drug concentration), the experiments were performed in triplicates and were repeated independently 3 times.
In this example, four different experimental cell groups were used. The first experimental group was the control group. For each well of the plates for the control group, the cell culture media was removed before the treatment applied to the other experimental groups. After the treatment was applied to the other experimental groups, 100 μL, fresh cell culture media for each well was added to the cells of the control group.
The second experimental group is the tube-only group. For the tube-only group, the cell culture media was removed before the treatment as well. After that, the cells were treated by placing the plate 134 on the side of the discharge tube 100 in FIG. 1A, with a distance of 1 and 5 mm between the plate 134 and the tube 100. The cells in the plate were exposed to the electro-magnetic field for 1, 4 and 7 minutes. 100 μL fresh cell culture media for each well was added to the cells after the treatment.
The third experiment group is the drug-only group. For the drug-only group, the cell culture media was removed before the treatment via electro-magnetic field applied to the other experimental groups. After the treatment of the other groups, 100 μL fresh cell culture media with 180, 250, 320 μM of TMZ for each well was added to the cells.
The last experimental group is a combination group. For the combination group, the cell culture media was removed before the treatment as well. Then, the cells were treated by placing the plate 134 on the side of the discharge tube 100 at a distance of 1 and 5 mm. The electro-magnetic field was applied for 1, 4 and 7 minutes. Following the treatment, 100 μL, fresh cell culture media with 180, 250, and 320 μM of TMZ for each well was added to the cells.

A172 glioblastoma cells = test: MTT cell viability assay, A172 glioblastoma cells, TMZ with or without plasma discharge tube electro-magnetic field; assay type: cell-based, human
Method: as §1, §2, §3
In this example, four different experimental cell groups were used. The first experimental group was the control group. […]

hTERT/E6/E7 cells = test: MTT cell viability assay, non-cancerous hTERT/E6/E7 cells, TMZ with or without plasma discharge tube electro-magnetic field; assay type: cell-based; details: after a single 7-minute treatment with discharge tube, E6/E7 non-tumor cell line
Method: as §1
as §2, with “cells. […]” for “cells.”

Cn1nnc2c(C(N)=O)ncn2c1=O [TMZ, Temozolomide]
inhibition of the growth of U87 cells (killing effect) (U87 glioblastoma cells; 1, 4 or 7 minute electro-magnetic field exposure at 1 mm, then 320 μM TMZ): ~80%
inhibition of the growth of U87 cells (U87 glioblastoma cells; 1 minute electro-magnetic field exposure): 24%
inhibition of the growth of U87 cells (U87 glioblastoma cells; 4 minute electro-magnetic field exposure): 38%
inhibition of the growth of U87 cells (U87 glioblastoma cells; 7 minute electro-magnetic field exposure): 72%
increase in U87 cell death compared with non-cancerous cells (U87 glioblastoma cells; 7 minutes electro-magnetic field exposure prior to TMZ treatment (FIG. 7)): 43%
inhibition at 180 µM (U87 glioblastoma cells; Homo sapiens, U-87 MG, 72 h, 180 μM TMZ only, no electro-magnetic field, 72 h, read-out: growth inhibition / cell death of U87 cells): 21%
higher cell death in U87 cells compared to E6/E7 cells (U87 glioblastoma cells; TMZ-only treatment (FIG. 7)): 12%
increase of anti-cancer efficacy of TMZ (factor) (U87 glioblastoma cells; after a single 7-minute treatment with discharge tube, U87): > 2
killing effect on U87 cells (U87 glioblastoma cells; electro-magnetic field exposure at 5 mm (so in the source); FIG. 4E) plus TMZ): 60%
reduction of cell viability of A172 cells (A172 glioblastoma cells; 7 minutes electro-magnetic field exposure at 1 mm, then 250 μM TMZ): 76%
inhibition at 250 µM (A172 glioblastoma cells; Homo sapiens, A 172, 250 μM TMZ, read-out: cell growth inhibition of A172 cells): 23%
increase of anti-cancer efficacy of TMZ (factor) (A172 glioblastoma cells; after a single 7-minute treatment with discharge tube, A172): > 2
increase of anti-cancer efficacy of TMZ (hTERT/E6/E7 cells): no significant effect
